Where a name gives a salt, the structure may show the parent alone. Read-outs that look alike come from different tables or passages of the source. One block for each compound: values may come before it.
Experiments:
[1] = as described in U.S. Pat. No. 8,163,904; cited from earlier work
[2] = as described in U.S. Pat. No. 8,163,904; cited from earlier work; remark: listed apart in the source
[3] = Intrinsic dissolution study in 0.1 N HCl; format: physicochemical; details: at 15 minutes time interval, conventional intrinsic dissolution assembly
Description: Intrinsic dissolution studies were conducted on nilotinib dihydrochloride Form X and nilotinib monohydrochloride monohydrate in 0.1 N HCl using a conventional intrinsic dissolution assembly.

Hygroscopicity = format: physicochemical

SMILES: Cc1cn(-c2cc(NC(=O)c3ccc(C)c(Nc4nccc(-c5cccnc5)n4)c3)cc(C(F)(F)F)c2)cn1 [Form B, nilotinib hydrochloride monohydrate]
- hygroscopicity [1]: hygroscopic
- solubility in water [2]: very slightly soluble in water

- release (intrinsic dissolution) ([3]; dihydrochloride hydrate): 109%
- hygroscopicity (Hygroscopicity): substantially non-hygroscopic
SMILES: Cc1cn(-c2cc(NC(=O)c3ccc(C)c(Nc4nccc(-c5cccnc5)n4)c3)cc(C(F)(F)F)c2)cn1 [nilotinib dihydrochloride Form X, nilotinib dihydrochloride hydrate]

- release (intrinsic dissolution) ([3]; monohydrochloride monohydrate): 114%
SMILES: Cc1cn(-c2cc(NC(=O)c3ccc(C)c(Nc4nccc(-c5cccnc5)n4)c3)cc(C(F)(F)F)c2)cn1 [nilotinib monohydrochloride monohydrate]

From US10301282B2, “Polymorphic form X of nilotinib dihydrochloride hydrate” (Cipla Limited, priority 2015, dated 2019)
